The results in this text go back to PMC9080489, “Synthesis and biological evaluation of 2-aryl-benzimidazole derivatives of dehydroabietic acid as novel tubulin polymerization inhibitors” (RSC Advances, 2018).

Structures are written as SMILES. Read-outs that look alike come from different tables or passages of the source.

The test system of data set [1] is human hepatocarcinoma cell line (SMMC-7721). Kind of data set: MTT cytotoxic assay, SMMC-7721. To be noted: MTT, 48 h exposure, read-out: IC50 SMMC-7721. Type of data set: cell-based. Here is the method: (§1) The in vitro antiproliferative activity of DAA derivatives (1–5, 6a–k, 7a–k) were evaluated by MTT assay against human hepatocarcinoma cell line (SMMC-7721), human breast cancer cell line (MDA-MB-231), human cervical carcinoma cell line (HeLa), mouse colon cancer cell line (CT-26) and human normal hepatocyte cell line (QSG-7701). Nocodazole was co-assayed as the positive control and DMEM culture medium containing 0.1% DMSO was used as negative control. The results of the tested compounds expressed as IC50 values (concentration required to inhibit tumor cell proliferation by 50%) were presented in Table 1.
(§2) The human hepatocarcinoma cell line (SMMC-7721), human breast cancer cell line (MDA-MB-231), human cervical carcinoma cell line (HeLa), mouse colon cancer cell line (CT-26) and human normal hepatocyte cells (QSG-7701) used in this study were all obtained from Keygene Biotech., China. These cell lines were maintained in DMEM medium supplemented with 10% heat-inactivated fetal bovine serum in a humidified atmosphere of 5% CO2 at 37 °C.
(§3) The in vitro cytotoxic activities of the benzimidazole derivatives of dehydroabietic acid were evaluated against tested cell lines via the MTT colorimetric method. Briefly, different tumor cells were grown in DMEM medium supplemented with 10% fetal bovine serum, penicillin (100 U mL^−1), and streptomycin (50 μg mL^−1). Cells were harvested at log phase of growth and seeded in 96-well plates (100 μL per well at a density of 2 × 10^5 cells mL^−1). After 24 h incubation at 37 °C and 5% CO2 to allow cell attachment, cultures were exposed to various concentrations of the isolated compounds for 48 h. Finally, MTT solution (2.5 mg mL^−1 in PBS) was added (40 μL per well). Plates were further incubated for 4 h at 37 °C, and the formazan crystals formed were dissolved by adding 150 μL per well of DMSO. Absorption at 570 nm was measured with an ELISA plate reader. The results were expressed as IC50 values with standard deviations, which was defined as the concentration at which 50% survival of cells was discerned. Nocodazole was co-assayed as positive control.
Background: Tetrazolium dyes change colour on reduction, which living cells bring about.

The test system of data set [2] is human breast cancer cell line (MDA-MB-231). Kind of data set: MTT cytotoxic assay, MDA-MB-231. The format is cell-based. To be noted: MDA-MB-231, MTT, 48 h exposure, read-out: IC50 MDA-MB-231. Here is the method:
as §1, §2, §3

For data set [3], the system named is human cervical carcinoma cell line (HeLa). Kind of data set: MTT cytotoxic assay, HeLa. To be noted: MTT, 48 h exposure, read-out: IC50 HeLa. The format is cell-based. How it is done: as §1, §2, §3
In data set [4] the test system is mouse colon cancer cell line (CT-26). The data set is described as follows: MTT cytotoxic assay, CT-26. The format is cell-based. To be noted: MTT, 48 h exposure, read-out: IC50 CT-26. Here is the method:
as §1, §2, §3

In data set [5] the test system is human normal hepatocyte cell line (QSG-7701). Kind of data set: MTT cytotoxic assay, QSG-7701. The format is cell-based. To be noted: QSG7701, 48 h exposure. How it is done: as §1, §2, §3
A further data set addresses T1, Porcine brain tubulin (Sus scrofa, UniProt P02550+P02554).
T1 construct: purchased Cytoskeleton, Inc. BK004P; host or cells: porcine brain tissue
The data set is described as follows: In vitro tubulin polymerization inhibition assay (OD340). Type of data set: biochemical. To be noted: 10 μM, 37 °C, 1 h, versus blank control. Here is the method:
The in vitro tubulin polymerization inhibition assay was carried out by using the Tubulin Polymerization Assay Kit (Cytoskeleton, Inc., USA) according to the protocol in the manual. Porcine brain tubulin was incubated with compound 6j at concentrations of 5 and 10 μM. The positive control colchicine and negative control taxol were co-assayed at the concentration of 10 μM, and G-PEM buffer was used as the blank control.
The tubulin polymerization assay was accomplished using a commercial assay kit (cat. #BK004P) purchased from Cytoskeleton, Inc. (Danvers, MA, USA). Tubulin isolated from porcine brain tissue was used in this tubulin polymerization assay kit. Tubulin polymerizations are followed by an increase in optical density at 340 nm (OD340) over a 60 min period at 37 °C due to the light scattered by microtubule polymer. At first, tubulin (4 mg) was disovled in 1 mL of G-PEM buffer containing 80 mM piperazine-N,N′-bis(2-ethanesulfonic acid) sequisodium salt (PIPES, pH 6.9), 2.0 mM MgCl2, 0.5 mM EGTA and 1 mM GTP to prepare tubulin solution. Subsequently, 10 μL of 10 × stock solutions of the tested compounds at different concentrations were added to a prewarmed 96-well plate and incubated at 37 °C for 2 min, then 90 μL of tubulin solution was also added into each well to initiate the reaction. The optical intensity (OD340) of each well was recorded every 60 s for 60 min (Cytation 3 Cell Imaging Multi-Mode Reader, BioTek Instruments, Inc., USA). Colchicine and taxol were co-assayed as the positive control and negative control, respectively. G-PEM buffer was used as the blank control.

T1 sequence (P02554 whole entry): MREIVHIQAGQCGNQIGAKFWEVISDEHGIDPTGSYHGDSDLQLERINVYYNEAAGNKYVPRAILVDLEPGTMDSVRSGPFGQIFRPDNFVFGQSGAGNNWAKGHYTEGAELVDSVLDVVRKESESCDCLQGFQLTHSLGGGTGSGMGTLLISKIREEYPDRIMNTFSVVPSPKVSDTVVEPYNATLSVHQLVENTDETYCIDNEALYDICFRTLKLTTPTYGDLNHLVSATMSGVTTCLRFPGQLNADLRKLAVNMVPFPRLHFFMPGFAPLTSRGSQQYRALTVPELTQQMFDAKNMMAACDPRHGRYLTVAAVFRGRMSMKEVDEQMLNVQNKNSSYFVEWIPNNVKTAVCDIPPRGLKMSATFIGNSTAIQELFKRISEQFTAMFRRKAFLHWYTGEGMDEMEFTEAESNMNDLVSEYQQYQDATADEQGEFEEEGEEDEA
T1 sequence (P02550 whole entry): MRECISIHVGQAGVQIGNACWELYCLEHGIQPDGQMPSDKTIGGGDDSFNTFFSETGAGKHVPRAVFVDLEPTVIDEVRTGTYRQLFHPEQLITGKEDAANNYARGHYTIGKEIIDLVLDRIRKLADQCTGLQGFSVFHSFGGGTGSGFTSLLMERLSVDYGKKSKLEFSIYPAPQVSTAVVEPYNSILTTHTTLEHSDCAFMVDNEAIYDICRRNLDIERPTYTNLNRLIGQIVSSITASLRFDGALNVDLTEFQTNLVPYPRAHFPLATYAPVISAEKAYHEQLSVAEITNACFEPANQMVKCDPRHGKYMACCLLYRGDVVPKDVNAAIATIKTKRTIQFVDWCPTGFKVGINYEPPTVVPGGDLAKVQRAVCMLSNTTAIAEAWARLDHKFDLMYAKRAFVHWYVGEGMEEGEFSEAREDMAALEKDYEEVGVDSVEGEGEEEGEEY

On to `COC(=O)[C@]1(C)CCC[C@]2(C)c3cc(-c4cc(OC)c(OC)c(OC)c4)c4nc(-c5ccc(Br)cc5)[nH]c4c3CCC12` (stereo partly shown) [Compound 7h, Methyl 2′-(4-bromophenyl)-12-(3,4,5-trimethoxyphenyl)-13,14-imidazolyl-deisopropyl-dehydroabietate], for which the melting point (usually the temperature, or range, at which the solid turns liquid) was in the range of 150 to 152 °C. Further, the concentration for half-maximal inhibition (IC50) (in general, the concentration that gives 50% inhibition) in data set [1] (Homo sapiens, SMMC-7721, 48 h) is more than 50 µM. In addition, the half-inhibitory concentration (IC50) in data set [2] stood at 8.84 ± 1.08 µM. Also, the concentration for half-maximal inhibition (IC50) in data set [3] was found to be 29.9 ± 3.07 µM. Moreover, the 50% inhibitory concentration (IC50) in data set [4] is 2.76 ± 0.26 µM. Moreover, the concentration for half-maximal inhibition (IC50) in data set [4] (Mus musculus, CT26, 48 h) is less than 5 µM. The same compound came in with an IC50 in data set [5] of more than 50 µM.

Compound `COC(=O)[C@]1(C)CCC[C@]2(C)c3cc(-c4cc(OC)c(OC)c(OC)c4)c4nc(-c5cccc(F)c5)[nH]c4c3CCC12` (stereo partly shown) [Compound 7d, Methyl 2′-(3-fluorophenyl)-12-(3,4,5-trimethoxyphenyl)-13,14-imidazolyl-deisopropyl-dehydroabietate] returned a melting point of 156 to 158 °C. Besides, the IC50 in data set [1] (Homo sapiens, SMMC-7721, 48 h) is more than 50 µM. Moreover, the IC50 in data set [2] is 6.42 ± 0.04 µM. Further, the IC50 in data set [3] was determined as 12.9 ± 1.26 µM. Moreover, the IC50 in data set [4] was found to be 2.7 ± 0.12 µM. In addition, the IC50 in data set [4] (Mus musculus, CT26, 48 h) is less than 5 µM. Further, the IC50 in data set [5] was more than 50 µM.

In turn, `COC(=O)[C@]1(C)CCC[C@]2(C)c3cc(-c4cc(OC)c(OC)c(OC)c4)c4nc(-c5ccc(Cl)cc5)[nH]c4c3CCC12` (stereo partly shown) [Compound 7f, Methyl 2′-(4-chlorophenyl)-12-(3,4,5-trimethoxyphenyl)-13,14-imidazolyl-deisopropyl-dehydroabietate] displayed a melting point of 168 to 170 °C. For the same compound, the IC50 in data set [1] (Homo sapiens, SMMC-7721, 48 h) is 11 ± 2.68 µM. The concentration for half-maximal inhibition (IC50) in data set [2] was determined as 10.1 ± 1.38 µM. For the same compound, the 50% inhibitory concentration (IC50) in data set [3] was determined as 17.2 ± 2.32 µM. Moreover, the IC50 in data set [4] was determined as 3.44 ± 0.75 µM. In addition, in data set [4] (Mus musculus, CT26, 48 h), the IC50 is less than 5 µM. The IC50 in data set [5] is more than 50 µM.

In turn, `COC(=O)[C@]1(C)CCC[C@]2(C)c3cc(Br)c4nc(-c5cccc(F)c5)[nH]c4c3CCC12` (stereo partly shown) [Compound 6d, Methyl 2′-(3-fluorophenyl)-12-bromo-13,14-imidazolyl-deisopropyl-dehydroabietate] had a melting point of 142 to 144 °C. Also, the IC50 in data set [1] (Homo sapiens, SMMC-7721, 48 h) was less than 5 µM. Further, the 50% inhibitory concentration (IC50) in data set [1] came to 5.27 ± 0.27 µM. The IC50 in data set [2] was 12 ± 1.31 µM. The IC50 in data set [3] was 17.7 ± 3.02 µM. Besides, in data set [4], the half-maximal inhibitory concentration (IC50) turned out to be 3.39 ± 0.33 µM. Moreover, in data set [4] (Mus musculus, CT26, 48 h), the IC50 is less than 5 µM. In data set [5], this compound gave a half-maximal inhibitory concentration (IC50) of more than 50 µM.

In turn, `COC(=O)[C@]1(C)CCC[C@]2(C)c3cc(Br)c4nc(-c5ccc(F)cc5)[nH]c4c3CCC12` (stereo partly shown) [Compound 6c, Methyl 2′-(4-fluorophenyl)-12-bromo-13,14-imidazolyl-deisopropyl-dehydroabietate] had a melting point of 149 to 151 °C. In data set [2], the half-maximal inhibitory concentration (IC50) worked out at 18.2 ± 1.2 µM. Further, the half-inhibitory concentration (IC50) in data set [3] is 8.01 ± 0.76 µM. In addition, the IC50 in data set [4] was found to be 2.82 ± 0.97 µM. Also, in data set [4] (Mus musculus, CT26, 48 h), the IC50 was less than 5 µM. Besides, in data set [5], the half-inhibitory concentration (IC50) is more than 50 µM.

Regarding `COC(=O)[C@]1(C)CCC[C@]2(C)c3cc(Br)c4nc(-c5ccccc5)[nH]c4c3CCC12` (stereo partly shown) [Compound 6a, Methyl 2′-phenyl-12-bromo-13,14-imidazolyl-deisopropyl-dehydroabietate], the melting point lay in the range of 123 to 125 °C. Besides, the IC50 in data set [1] (Homo sapiens, SMMC-7721, 48 h) was found to be 12.5 ± 0.45 µM. Further, the IC50 in data set [2] worked out at 41.7 ± 2.06 µM. In addition, the half-maximal inhibitory concentration (IC50) in data set [3] came to 16.2 ± 1.73 µM. Besides, the IC50 in data set [4] (Mus musculus, CT26, 48 h) stood at 6.34 ± 0.83 µM. In data set [5], this compound registered an IC50 of more than 50 µM.

Take `COC(=O)[C@]1(C)CCC[C@]2(C)c3cc(-c4cc(OC)c(OC)c(OC)c4)c4nc(-c5ccc(F)cc5)[nH]c4c3CCC12` (stereo partly shown) [Compound 7c, Methyl 2′-(4-fluorophenyl)-12-(3,4,5-trimethoxyphenyl)-13,14-imidazolyl-deisopropyl-dehydroabietate]: the melting point fell in the range of 139 to 141 °C. For the same compound, the IC50 in data set [1] (Homo sapiens, SMMC-7721, 48 h) is less than 5 µM. In addition, the IC50 in data set [1] amounted to 3.29 ± 0.13 µM. In addition, the half-maximal inhibitory concentration (IC50) in data set [2] amounted to 0.69 ± 0.21 µM. The half-maximal inhibitory concentration (IC50) in data set [3] came out at 7.63 ± 1.03 µM. For the same compound, in data set [4] (Mus musculus, CT26, 48 h), the IC50 is 8.95 ± 0.17 µM. This compound showed an IC50 in data set [5] of 36.1 ± 2.32 µM.

`CC(=O)O[C@H]1C(=O)[C@@]2(C)[C@H]([C@H](OC(=O)c3ccccc3)[C@]3(O)C[C@H](OC(=O)[C@H](O)[C@@H](NC(=O)c4ccccc4)c4ccccc4)C(C)=C1C3(C)C)[C@]1(OC(C)=O)CO[C@@H]1C[C@@H]2O` [taxol, reference compound]: the “effect on tubulin polymerization speed and final absorbance (OD340)” value on Porcine brain tubulin is “obviously increased the speed of tubulin polymerization and the final absorbance”.

Compound `COC(=O)[C@]1(C)CCC[C@]2(C)c3cc(-c4cc(OC)c(OC)c(OC)c4)c4nc(-c5ccccc5)[nH]c4c3CCC12` (stereo partly shown) [Compound 7a, Methyl 2′-phenyl-12-(3,4,5-trimethoxyphenyl)-13,14-imidazolyl-deisopropyl-dehydroabietate] registered a melting point of 153 to 155 °C. The concentration for half-maximal inhibition (IC50) in data set [1] (Homo sapiens, SMMC-7721, 48 h) was 9.38 ± 1.02 µM. Moreover, in data set [2], the concentration for half-maximal inhibition (IC50) is more than 50 µM. Besides, the IC50 in data set [3] came out at 13.1 ± 1.7 µM. Further, the IC50 in data set [4] (Mus musculus, CT26, 48 h) worked out at 8.25 ± 0.5 µM. Also, in data set [5], the IC50 was more than 50 µM.
